Source: PubChem BioAssay (NCI)
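Results reflect a 48-hour exposure of cells in 96-well plates to compound at five concentrations. TGI marks complete inhibition of growth.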

Key:
Experiment in all cases: NCI-60 cell line screen, 48 h
[1] = tested on: 786-0 renal
[2] = tested on: A498 renal
[3] = tested on: A549 NSCLC
[4] = tested on: ACHN renal
[5] = tested on: BT-549 breast
[6] = tested on: CAKI-1 renal
[7] = tested on: CCRF-CEM leukemia
[8] = tested on: COLO 205 colon
[9] = tested on: DU-145 prostate
[10] = tested on: EKVX NSCLC
[11] = tested on: HCC-2998 colon
[12] = tested on: HCT-116 colon
[13] = tested on: HCT-15 colon
[14] = tested on: HL-60(TB) leukemia
[15] = tested on: HOP-62 NSCLC
[16] = tested on: HOP-92 NSCLC
[17] = tested on: HS 578T breast
[18] = tested on: HT29 colon
[19] = tested on: IGROV1 ovarian
[20] = tested on: K-562 leukemia
[21] = tested on: KM12 colon
[22] = tested on: LOX IMVI melanoma
[23] = tested on: M14 melanoma
[24] = tested on: MALME-3M melanoma
[25] = tested on: MCF7 breast
[26] = tested on: MDA-MB-231 breast
[27] = tested on: MDA-MB-435
[28] = tested on: MDA-N
[29] = tested on: MOLT-4 leukemia
[30] = tested on: NCI-H226 lung
[31] = tested on: NCI-H23 lung
[32] = tested on: NCI-H460 lung
[33] = tested on: NCI-H522 lung
[34] = tested on: NCI/ADR-RES ovarian
[35] = tested on: OVCAR-3 ovarian
[36] = tested on: OVCAR-4 ovarian
[37] = tested on: OVCAR-5 ovarian
[38] = tested on: OVCAR-8 ovarian
[39] = tested on: PC-3 prostate
[40] = tested on: RPMI-8226 leukemia
[41] = tested on: RXF 393 renal
[42] = tested on: SF-268 CNS
[43] = tested on: SF-295 CNS
[44] = tested on: SF-539 CNS
[45] = tested on: SK-MEL-2 melanoma
[46] = tested on: SK-MEL-28 melanoma
[47] = tested on: SK-MEL-5 melanoma
[48] = tested on: SK-OV-3 ovarian
[49] = tested on: SN12C renal
[50] = tested on: SNB-19 CNS
[51] = tested on: SNB-75 CNS
[52] = tested on: SR leukemia
[53] = tested on: SW-620 colon
[54] = tested on: T-47D breast
[55] = tested on: TK-10 renal
[56] = tested on: U251 CNS
[57] = tested on: UACC-257 melanoma
[58] = tested on: UACC-62 melanoma
[59] = tested on: UO-31 renal
[60] = tested on: DLD-1 colon
[61] = tested on: DMS 273 small cell lung
[62] = tested on: HOP-18 NSCLC
[63] = tested on: KM20L2 colon
[64] = tested on: LXFL 529 NSCLC
[65] = tested on: M19-MEL melanoma

SMILES: O=c1/c(=C/c2ccc([N+](=O)[O-])o2)sc2n1[C@@H](c1ccc3c(c1)OCO3)C=C(c1cc(F)c(Cl)cc1Cl)N=2
- TGI [1]: 42.1 µM
- TGI [2]: > 100 µM
- TGI [3]: > 100 µM
- TGI [4]: 33.2 µM
- TGI [5]: 35.1 µM
- TGI [6]: 33.6 µM
- TGI [7]: 10.5 µM
- TGI [8]: 71.4 µM
- TGI [9]: 79.8 µM
- TGI [10]: 32.7 µM
- TGI [11]: 28.7 µM
- TGI [12]: 28 µM
- TGI [13]: 64.9 µM
- TGI [14]: 45.5 µM
- TGI [15]: 58.9 µM
- TGI [16]: 26.6 µM
- TGI [17]: > 100 µM
- TGI [18]: 46 µM
- TGI [19]: 33.4 µM
- TGI [20]: > 100 µM
- TGI [21]: 38.4 µM
- TGI [22]: 42.9 µM
- TGI [23]: 31.8 µM
- TGI [24]: 40.5 µM
- TGI [25]: 32.4 µM
- TGI [26]: 50.4 µM
- TGI [27]: 35.3 µM
- TGI [28]: 43.3 µM
- TGI [29]: > 100 µM
- TGI [30]: > 100 µM
- TGI [31]: 46.8 µM
- TGI [32]: 49.8 µM
- TGI [33]: 65.6 µM
- TGI [34]: > 100 µM
- TGI [35]: 35.3 µM
- TGI [36]: 32.6 µM
- TGI [37]: 43.8 µM
- TGI [38]: 56.4 µM
- TGI [39]: > 100 µM
- TGI [40]: > 100 µM
- TGI [41]: 43.2 µM
- TGI [42]: > 100 µM
- TGI [43]: > 100 µM
- TGI [44]: > 100 µM
- TGI [45]: 83 µM
- TGI [46]: > 100 µM
- TGI [47]: 24 µM
- TGI [48]: > 100 µM
- TGI [49]: 56.7 µM
- TGI [50]: 60.3 µM
- TGI [51]: 37.4 µM
- TGI [52]: > 100 µM
- TGI [53]: > 100 µM
- TGI [54]: 59.3 µM
- TGI [55]: 47.8 µM
- TGI [56]: 46.5 µM
- TGI [57]: 34.8 µM
- TGI [58]: 34 µM
- TGI [59]: 42.2 µM

SMILES: CCN(CC)CCCCC1CCN(CC(=O)N2c3cc(Cl)ccc3NC(=O)CC2C)CC1 (configuration not stated)
- TGI [1]: > 100 µM
- TGI [2]: > 100 µM
- TGI [3]: > 100 µM
- TGI [4]: > 100 µM
- TGI [6]: > 100 µM
- TGI [7]: > 100 µM
- TGI [8]: > 100 µM
- TGI [60]: > 100 µM
- TGI [61]: > 100 µM
- TGI [11]: > 100 µM
- TGI [12]: > 100 µM
- TGI [13]: > 100 µM
- TGI [14]: > 100 µM
- TGI [62]: > 100 µM
- TGI [15]: > 100 µM
- TGI [16]: > 100 µM
- TGI [18]: > 100 µM
- TGI [19]: > 100 µM
- TGI [20]: > 100 µM
- TGI [63]: > 100 µM
- TGI [22]: > 100 µM
- TGI [64]: > 100 µM
- TGI [23]: > 100 µM
- TGI [65]: > 100 µM
- TGI [24]: > 100 µM
- TGI [29]: > 100 µM
- TGI [30]: > 100 µM
- TGI [31]: > 100 µM
- TGI [32]: > 100 µM
- TGI [35]: > 100 µM
- TGI [36]: > 100 µM
- TGI [37]: > 100 µM
- TGI [40]: > 100 µM
- TGI [42]: > 100 µM
- TGI [43]: > 100 µM
- TGI [46]: > 100 µM
- TGI [47]: > 100 µM
- TGI [48]: > 100 µM
- TGI [49]: > 100 µM
- TGI [50]: > 100 µM
- TGI [52]: > 100 µM
- TGI [53]: > 100 µM
- TGI [56]: > 100 µM
- TGI [57]: > 100 µM
- TGI [58]: > 100 µM
- TGI [59]: > 100 µM

SMILES: CCOP(=O)(OCC)C(F)(F)Cc1cnc(C)c2c1COC(C)(C)O2
- TGI [1]: > 10 µM
- TGI [2]: > 10 µM
- TGI [3]: > 10 µM
- TGI [4]: > 10 µM
- TGI [5]: > 10 µM
- TGI [6]: > 10 µM
- TGI [7]: > 10 µM
- TGI [8]: > 10 µM
- TGI [9]: > 10 µM
- TGI [10]: > 10 µM
- TGI [11]: > 10 µM
- TGI [12]: > 10 µM
- TGI [13]: > 10 µM
- TGI [14]: > 10 µM
- TGI [15]: > 10 µM
- TGI [16]: > 10 µM
- TGI [17]: > 10 µM
- TGI [18]: > 10 µM
- TGI [19]: > 10 µM
- TGI [20]: > 10 µM
- TGI [21]: > 10 µM
- TGI [23]: > 10 µM
- TGI [24]: > 10 µM
- TGI [25]: > 10 µM
- TGI [26]: > 10 µM
- TGI [27]: > 10 µM
- TGI [28]: > 10 µM
- TGI [29]: > 10 µM
- TGI [30]: > 10 µM
- TGI [31]: > 10 µM
- TGI [32]: > 10 µM
- TGI [34]: > 10 µM
- TGI [35]: > 10 µM
- TGI [36]: > 10 µM
- TGI [37]: > 10 µM
- TGI [38]: > 10 µM
- TGI [39]: > 10 µM
- TGI [40]: > 10 µM
- TGI [41]: > 10 µM
- TGI [42]: > 10 µM
- TGI [43]: > 10 µM
- TGI [44]: > 10 µM
- TGI [45]: > 10 µM
- TGI [46]: > 10 µM
- TGI [47]: > 10 µM
- TGI [48]: > 10 µM
- TGI [49]: > 10 µM
- TGI [50]: > 10 µM
- TGI [51]: > 10 µM
- TGI [52]: > 10 µM
- TGI [53]: > 10 µM
- TGI [54]: > 10 µM
- TGI [55]: > 10 µM
- TGI [56]: > 10 µM
- TGI [57]: > 10 µM
- TGI [58]: > 10 µM
- TGI [59]: > 10 µM

SMILES: C=CCC1C(=O)Nc2cccc3ncn(c23)C1=O (configuration not stated)
- TGI [1]: > 100 µM
- TGI [2]: > 100 µM
- TGI [3]: > 100 µM
- TGI [4]: > 100 µM
- TGI [5]: > 100 µM
- TGI [6]: > 100 µM
- TGI [7]: > 100 µM
- TGI [8]: > 100 µM
- TGI [9]: > 100 µM
- TGI [10]: > 100 µM
- TGI [12]: > 100 µM
- TGI [13]: > 100 µM
- TGI [14]: > 100 µM
- TGI [15]: > 100 µM
- TGI [16]: > 100 µM
- TGI [17]: > 100 µM
- TGI [18]: > 100 µM
- TGI [19]: > 100 µM
- TGI [20]: > 100 µM
- TGI [21]: > 100 µM
- TGI [23]: > 100 µM
- TGI [24]: > 100 µM
- TGI [25]: > 100 µM
- TGI [26]: > 100 µM
- TGI [27]: > 100 µM
- TGI [28]: > 100 µM
- TGI [29]: > 100 µM
- TGI [30]: > 100 µM
- TGI [31]: > 100 µM
- TGI [32]: > 100 µM
- TGI [34]: > 100 µM
- TGI [35]: > 100 µM
- TGI [36]: > 100 µM
- TGI [37]: > 100 µM
- TGI [38]: > 100 µM
- TGI [39]: > 100 µM
- TGI [40]: > 100 µM
- TGI [41]: > 100 µM
- TGI [42]: > 100 µM
- TGI [43]: > 100 µM
- TGI [44]: > 100 µM
- TGI [45]: > 100 µM
- TGI [46]: > 100 µM
- TGI [47]: > 100 µM
- TGI [48]: > 100 µM
- TGI [49]: > 100 µM
- TGI [50]: > 100 µM
- TGI [51]: > 100 µM
- TGI [52]: > 100 µM
- TGI [53]: > 100 µM
- TGI [54]: > 100 µM
- TGI [56]: > 100 µM
- TGI [57]: > 100 µM
- TGI [58]: > 100 µM
- TGI [59]: > 100 µM
